Assay results published in patent US20100151104A1, “Preservative System For Beverages Based On Combinations Of Trans-Cinnamic Acid, Lauric Arginate, And Dimethyl Dicarbonate” (priority 2008, published 2010).

Assays:
Assay type in all cases: cell-based
Zygosaccharomyces bailii = assay: Growth in 10% apple juice beverage with combinations of LAE & cinnamic acid; log (QA/Qa+QB/Qb) calculation; conditions: for amount of growth (normalized) to control: Cinnamic Acid 0 ppm
From the text: (§1) Trans-cinnamic acid and lauric arginate were combined in the following beverage formulation: [table] […] The analysis of the interaction between lauric arginate and cinnamic acid can be refined through use of a mathematical method developed by Voorspuij and Nass (Arch. Int. pharmacodyn. 59:211 1957) (generally accepted among those practiced in the art.) Herein, the interactions between two active substances can be explored. First the quantity (Qa=Molar Cone) of compound A required for an end point (concentration required to stabilize product for 16 weeks) is established. Similarly, the quantity (Qb =Molar cone) of substance B required to establish the same endpoint is established. Thereafter, mixtures of A & B, in quantities QA & Qs are established that also define endpoints. […] If the sum of the ratios for a mixture of A & Bare=1, then the interaction is considered additive. […] Calculation of log (QA/Qa+QB/Qb) for LAE+trans Cinnamic Acid vs Zygosaccharomyces bailii

Brettanomyces nardensis = assay: as above; conditions: for amount of growth (normalized) to control: Cinnamic Acid 0 ppm
From the text: as §1, with “Brettanomyces […]” for “Zygosaccharomyces bailii”

Saccharomyces cerevsiae = assay: as above; conditions: for amount of growth (normalized) to control: Cinnamic Acid 0 ppm
From the text: as §1, with “[table] • Values reflect amount of growth (normalized) to control (0 ppm LAE & 0 ppm Cinnamic acid) for each pH tested.” for “[table]”, “Saccharomyces […]” for “Zygosaccharomyces bailii”

[1] = system: seven bio-indicator strains (Zygosaccharomyce baili, Brettanomyces species, Saccharomyces cerevisiae, Paecilomyces lilacinus, Zygosaccharomyces bisporus …); assay: Example 2: growth/no growth of seven bio-indicator strains in 4% apple juice beverage, 16 weeks; conditions: FIGS. 1a, 1b; stand alone; pH 3.4; 16 weeks at 25° C.
From the text: A single preparation of base beverage was employed to prepare each of five tests and consisted of 4% apple juice, 68 g sucrose/L, 52 g glucose/L, 2 g fructose/L prepared in batch water that was formulated to 90 ppm hardness with calcium chloride and magnesium chloride. […] The total combined quantity of sodium malate and malic acid was near constant, but the ratio of malic acid and malate varied slightly given the presence or absence of lauric arginate or cinnamic acid. Where required, lauric arginate or cinnamic acid was supplemented from separately prepared stock solutions. Each of the five tests employed the same bio-indicator organisms; Growth (+) versus no growth (-) established by visual inspection or spectrophotometrically. […] Y3, Zygosaccharomyce baili, Pepsi isolate 906; C-7UP, Brettanomyces species, Pepsi Isolate; Spore, an ascospore preparation of Saccharomyces cerevisiae 99 a Pepsi Isolate; […], Zygosaccharomyces baili, ATCC 60484; Spores, M7, Paecilomyces lilacinus ATCC 90461; […], Zygosaccharomyces bisporus ATCC 52407; Spores, M4, Talaromvces flavus var. flavus ATCC 10512. Samples were incubated for period of 16 weeks at 25° C. in vessels protective against evaporation.

[2] = stand alone, end point = concentration required to stabilize product for 16 weeks

CCCCCCCCCCCC(=O)N[C@@H](CCCNC(=N)N)C(=O)OCC.Cl [LAE, ethyl-N-lauroyl-L-argniate hydrochloride]
QA/Qa + QB/Qb (Zygosaccharomyces bailii; QLAE 76, QCA 0): 1.00 | QLAE/QLAE* (Zygosaccharomyces bailii; QLAE 76, QCA 0): 1.00 | QNaB/QNAB* (Zygosaccharomyces bailii; QLAE 76, QCA 0): 0.00 | log (QA/Qa + QB/Qb) (Zygosaccharomyces bailii; QLAE 76, QCA 0): 0.0000 | amount of growth (normalized) to control (Zygosaccharomyces bailii; pH 3.0, LAE 2.5 ppm): 81% | amount of growth (normalized) to control (Zygosaccharomyces bailii; pH 3.0, LAE 5 ppm): 88% | amount of growth (normalized) to control (Zygosaccharomyces bailii; pH 3.0, LAE 7.5 ppm): 82% | amount of growth (normalized) to control (Zygosaccharomyces bailii; pH 3.0, LAE 10 ppm): 79% | amount of growth (normalized) to control (Zygosaccharomyces bailii; pH 3.0, LAE 15 ppm): 75% | amount of growth (normalized) to control (Zygosaccharomyces bailii; pH 3.5, LAE 2.5 ppm): 95% | amount of growth (normalized) to control (Zygosaccharomyces bailii; pH 3.5, LAE 5 ppm): 75% | amount of growth (normalized) to control (Zygosaccharomyces bailii; pH 3.5, LAE 7.5 ppm): 75% | amount of growth (normalized) to control (Zygosaccharomyces bailii; pH 3.5, LAE 10 ppm): 78% | amount of growth (normalized) to control (Zygosaccharomyces bailii; pH 3.5, LAE 15 ppm): 86% | amount of growth (normalized) to control (Zygosaccharomyces bailii; pH 4.0, LAE 2.5 ppm): 94% | amount of growth (normalized) to control (Zygosaccharomyces bailii; pH 4.0, LAE 5 ppm): 80% | amount of growth (normalized) to control (Zygosaccharomyces bailii; pH 4.0, LAE 7.5 ppm): 85% | amount of growth (normalized) to control (Zygosaccharomyces bailii; pH 4.0, LAE 10 ppm): 114% | amount of growth (normalized) to control (Zygosaccharomyces bailii; pH 4.0, LAE 15 ppm): 124% | QLAE* (quantity of LAE alone required for the end point) (Zygosaccharomyces bailii; [2]): QLAE* 76 | QA/Qa + QB/Qb (Brettanomyces nardensis; QLAE 15, QCA 0): 1.00 | QLAE/QLAE* (Brettanomyces nardensis; QLAE 15, QCA 0): 1.00 | QNaB/QNAB* (Brettanomyces nardensis; QLAE 15, QCA 0): 0.00 | log (QA/Qa + QB/Qb) (Brettanomyces nardensis; QLAE 15, QCA 0): 0.0000 | amount of growth (normalized) to control (Brettanomyces nardensis; pH 3.0, LAE 2.5 ppm): 89% | amount of growth (normalized) to control (Brettanomyces nardensis; pH 3.0, LAE 5 ppm): 116% | amount of growth (normalized) to control (Brettanomyces nardensis; pH 3.0, LAE 7.5 ppm): 90% | amount of growth (normalized) to control (Brettanomyces nardensis; pH 3.0, LAE 10 ppm): 99% | amount of growth (normalized) to control (Brettanomyces nardensis; pH 3.0, LAE 15 ppm): 0% | amount of growth (normalized) to control (Brettanomyces nardensis; pH 3.5, LAE 2.5 ppm): 112% | amount of growth (normalized) to control (Brettanomyces nardensis; pH 3.5, LAE 5 ppm): 86% | amount of growth (normalized) to control (Brettanomyces nardensis; pH 3.5, LAE 7.5 ppm): 81% | amount of growth (normalized) to control (Brettanomyces nardensis; pH 3.5, LAE 10 ppm): 57% | amount of growth (normalized) to control (Brettanomyces nardensis; pH 3.5, LAE 15 ppm): 0% | amount of growth (normalized) to control (Brettanomyces nardensis; pH 4.0, LAE 2.5 ppm): 109% | amount of growth (normalized) to control (Brettanomyces nardensis; pH 4.0, LAE 5 ppm): 104% | amount of growth (normalized) to control (Brettanomyces nardensis; pH 4.0, LAE 7.5 ppm): 97% | amount of growth (normalized) to control (Brettanomyces nardensis; pH 4.0, LAE 10 ppm): 0% | amount of growth (normalized) to control (Brettanomyces nardensis; pH 4.0, LAE 15 ppm): 0% | QLAE* (quantity of LAE alone required for the end point) (Brettanomyces nardensis; [2]): QLAE* 15 | QA/Qa + QB/Qb (Saccharomyces cerevsiae; QLAE 32, QCA 0): 1.00 | QLAE/QLAE* (Saccharomyces cerevsiae; QLAE 32, QCA 0): 1.00 | QNaB/QNAB* (Saccharomyces cerevsiae; QLAE 32, QCA 0): 0.00 | log (QA/Qa + QB/Qb) (Saccharomyces cerevsiae; QLAE 32, QCA 0): 0.0000 | amount of growth (normalized) to control (Saccharomyces cerevsiae; pH 3.0, LAE 2.5 ppm): 97% | amount of growth (normalized) to control (Saccharomyces cerevsiae; pH 3.0, LAE 5 ppm): 97% | amount of growth (normalized) to control (Saccharomyces cerevsiae; pH 3.0, LAE 7.5 ppm): 86% | amount of growth (normalized) to control (Saccharomyces cerevsiae; pH 3.0, LAE 10 ppm): 94% | amount of growth (normalized) to control (Saccharomyces cerevsiae; pH 3.0, LAE 15 ppm): 42% | amount of growth (normalized) to control (Saccharomyces cerevsiae; pH 3.5, LAE 2.5 ppm): 103% | amount of growth (normalized) to control (Saccharomyces cerevsiae; pH 3.5, LAE 5 ppm): 104% | amount of growth (normalized) to control (Saccharomyces cerevsiae; pH 3.5, LAE 7.5 ppm): 93% | amount of growth (normalized) to control (Saccharomyces cerevsiae; pH 3.5, LAE 10 ppm): 105% | amount of growth (normalized) to control (Saccharomyces cerevsiae; pH 3.5, LAE 15 ppm): 57% | amount of growth (normalized) to control (Saccharomyces cerevsiae; pH 4.0, LAE 2.5 ppm): 101% | amount of growth (normalized) to control (Saccharomyces cerevsiae; pH 4.0, LAE 5 ppm): 96% | amount of growth (normalized) to control (Saccharomyces cerevsiae; pH 4.0, LAE 7.5 ppm): 91% | amount of growth (normalized) to control (Saccharomyces cerevsiae; pH 4.0, LAE 10 ppm): 90% | amount of growth (normalized) to control (Saccharomyces cerevsiae; pH 4.0, LAE 15 ppm): 79% | QLAE* (quantity of LAE alone required for the end point) (Saccharomyces cerevsiae; [2]): QLAE* 32 | concentration required to inhibit all seven bio-indicator strains [1]: 0.16 mM
